Measured values as given in PubChem BioAssay (NCI).
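Cultured in 96-well plates, cells were exposed to test compound for 48 hours across five concentrations. GI50: concentration for 50% inhibition of growth. TGI marks complete inhibition of growth.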

Columns and labels:
Assay in all cases: NCI tumour cell line growth inhibition, 48 h
BT-549 breast = system: BT-549 breast
LOX IMVI melanoma = system: LOX IMVI melanoma
RXF 393 renal = system: RXF 393 renal
CAKI-1 renal = system: CAKI-1 renal
SNB-75 CNS = system: SNB-75 CNS
M14 melanoma = system: M14 melanoma
NCI-H460 lung = system: NCI-H460 lung
RPMI-8226 leukemia = system: RPMI-8226 leukemia
COLO 205 colon = system: COLO 205 colon
MOLT-4 leukemia = system: MOLT-4 leukemia
PC-3 prostate = system: PC-3 prostate
MDA-MB-468 breast = system: MDA-MB-468 breast
U251 CNS = system: U251 CNS
HCC-2998 colon = system: HCC-2998 colon
OVCAR-8 ovarian = system: OVCAR-8 ovarian
SK-MEL-28 melanoma = system: SK-MEL-28 melanoma
DU-145 prostate = system: DU-145 prostate
NCI-H522 lung = system: NCI-H522 lung
HL-60(TB) leukemia = system: HL-60(TB) leukemia
SNB-19 CNS = system: SNB-19 CNS
SF-295 CNS = system: SF-295 CNS
HOP-92 NSCLC = system: HOP-92 NSCLC
SK-MEL-2 melanoma = system: SK-MEL-2 melanoma
NCI-H23 lung = system: NCI-H23 lung
786-0 renal = system: 786-0 renal
SK-OV-3 ovarian = system: SK-OV-3 ovarian
A549 NSCLC = system: A549 NSCLC
HCT-15 colon = system: HCT-15 colon
UACC-257 melanoma = system: UACC-257 melanoma
OVCAR-4 ovarian = system: OVCAR-4 ovarian
HS 578T breast = system: HS 578T breast
UACC-62 melanoma = system: UACC-62 melanoma
MDA-MB-231 breast = system: MDA-MB-231 breast
SW-620 colon = system: SW-620 colon
A498 renal = system: A498 renal
HOP-62 NSCLC = system: HOP-62 NSCLC
MDA-MB-435 = system: MDA-MB-435
NCI/ADR-RES ovarian = system: NCI/ADR-RES ovarian
CCRF-CEM leukemia = system: CCRF-CEM leukemia
T-47D breast = system: T-47D breast
MALME-3M melanoma = system: MALME-3M melanoma
HT29 colon = system: HT29 colon
OVCAR-5 ovarian = system: OVCAR-5 ovarian
HCT-116 colon = system: HCT-116 colon
ACHN renal = system: ACHN renal
SK-MEL-5 melanoma = system: SK-MEL-5 melanoma
K-562 leukemia = system: K-562 leukemia
SF-539 CNS = system: SF-539 CNS
IGROV1 ovarian = system: IGROV1 ovarian
EKVX NSCLC = system: EKVX NSCLC
KM12 colon = system: KM12 colon
SF-268 CNS = system: SF-268 CNS
SN12C renal = system: SN12C renal
MCF7 breast = system: MCF7 breast
UO-31 renal = system: UO-31 renal
OVCAR-3 ovarian = system: OVCAR-3 ovarian
NCI-H226 lung = system: NCI-H226 lung
TK-10 renal = system: TK-10 renal

## COC(=O)C[C@](O)(CCCC(C)(C)O)C(=O)O[C@H]1C(OC)=C[C@@]23CCCN2CCc2cc4c(cc2[C@@H]13)OCO4
BT-549 breast
  GI50: 0.823 µM
  TGI: 2.38 µM
LOX IMVI melanoma
  GI50: 0.481 µM
  TGI: 1.56 µM
RXF 393 renal
  GI50: 0.447 µM
  TGI: 1.47 µM
CAKI-1 renal
  GI50: 3 µM
  TGI: 29.7 µM
SNB-75 CNS
  GI50: 0.982 µM
  TGI: 8.37 µM
M14 melanoma
  GI50: 0.744 µM
  TGI: 1.88 µM
NCI-H460 lung
  GI50: 0.21 µM
  TGI: 2.62 µM
RPMI-8226 leukemia
  GI50: 0.93 µM
  TGI: 2.36 µM
COLO 205 colon
  GI50: 1.7 µM
  TGI: 6.87 µM
MOLT-4 leukemia
  GI50: 0.255 µM
  TGI: 2.29 µM
PC-3 prostate
  GI50: 1.14 µM
  TGI: 9.36 µM
MDA-MB-468 breast
  GI50: 0.613 µM
  TGI: 2.08 µM
U251 CNS
  GI50: 1 µM
  TGI: 4.81 µM
HCC-2998 colon
  GI50: 0.545 µM
  TGI: 1.59 µM
OVCAR-8 ovarian
  GI50: 1.42 µM
  TGI: 11.9 µM
SK-MEL-28 melanoma
  GI50: 0.992 µM
  TGI: 4.26 µM
DU-145 prostate
  GI50: 1.12 µM
  TGI: 13.4 µM
NCI-H522 lung
  GI50: 0.858 µM
  TGI: 2.32 µM
HL-60(TB) leukemia
  GI50: 0.456 µM
  TGI: 1.74 µM
SNB-19 CNS
  GI50: 0.757 µM
  TGI: 3.06 µM
SF-295 CNS
  GI50: 1.34 µM
  TGI: 11.8 µM
HOP-92 NSCLC
  GI50: 1.15 µM
  TGI: 11.7 µM
SK-MEL-2 melanoma
  GI50: 3.23 µM
  TGI: 12.8 µM
NCI-H23 lung
  GI50: 0.996 µM
  TGI: 3.31 µM
786-0 renal
  GI50: 1.45 µM
  TGI: 9.56 µM
SK-OV-3 ovarian
  GI50: 1.35 µM
  TGI: 26.4 µM
A549 NSCLC
  GI50: 0.999 µM
  TGI: 8.72 µM
HCT-15 colon
  GI50: 4.65 µM
  TGI: 21.7 µM
UACC-257 melanoma
  GI50: 1.22 µM
  TGI: 8.48 µM
OVCAR-4 ovarian
  GI50: 1.22 µM
  TGI: 10.3 µM
HS 578T breast
  TGI: 9.75 µM
UACC-62 melanoma
  GI50: 1.41 µM
  TGI: 10.6 µM
MDA-MB-231 breast
  GI50: 2.24 µM
  TGI: 12.8 µM
SW-620 colon
  GI50: 1.15 µM
  TGI: > 38.3 µM
A498 renal
  GI50: 0.665 µM
  TGI: 3.66 µM
HOP-62 NSCLC
  GI50: 1.5 µM
  TGI: 16.2 µM
MDA-MB-435
  GI50: 1.25 µM
  TGI: 6.78 µM
NCI/ADR-RES ovarian
  GI50: > 38.3 µM
  TGI: > 38.3 µM
CCRF-CEM leukemia
  GI50: 0.856 µM
  TGI: 3.02 µM
T-47D breast
  GI50: 1.2 µM
  TGI: 18.5 µM
MALME-3M melanoma
  GI50: 0.691 µM
  TGI: 2.11 µM
HT29 colon
  GI50: 0.953 µM
  TGI: 6.45 µM
OVCAR-5 ovarian
  GI50: 1.55 µM
  TGI: 11.1 µM
HCT-116 colon
  GI50: 0.717 µM
  TGI: 3.01 µM
ACHN renal
  GI50: 1.77 µM
  TGI: 16.2 µM
SK-MEL-5 melanoma
  GI50: 0.614 µM
  TGI: 1.47 µM
K-562 leukemia
  GI50: 0.972 µM
  TGI: > 38.3 µM
SF-539 CNS
  GI50: 0.673 µM
  TGI: 1.78 µM
IGROV1 ovarian
  GI50: 1.32 µM
  TGI: 11.4 µM
EKVX NSCLC
  GI50: 1.67 µM
  TGI: 16.8 µM
KM12 colon
  GI50: 1.28 µM
  TGI: 17.5 µM
SF-268 CNS
  GI50: 2.9 µM
  TGI: 19.5 µM
SN12C renal
  GI50: 1.61 µM
  TGI: 19.6 µM
MCF7 breast
  GI50: 0.524 µM
  TGI: 2.11 µM
UO-31 renal
  GI50: 4.55 µM
  TGI: 29.8 µM
OVCAR-3 ovarian
  GI50: 1.01 µM
  TGI: 4.14 µM
NCI-H226 lung
  GI50: 0.781 µM
  TGI: 3.56 µM
TK-10 renal
  GI50: 3.03 µM
  TGI: 35.7 µM
